The source of these data is patent EP3964497A1, “SUBSTITUTED VICINAL DIAMINE COMPOUNDS AND THEIR USE IN THE TREATMENT, AMELIORATION OR PREVENTION OF PAIN” (priority 2020, dated 2022).

Assay [1] concerns the target T1, κOR (Homo sapiens, UniProt P41145).
T1 construct: expressed in transfected cells; host or cells: HEK 293T cells, transient transfection, membrane preparation
Nature of the assay: competitive radioligand binding with [3H]diprenorphine, membranes of transfected HEK 293T cells. The protocol: (§1) To verify the subtype selectivity of the described compounds for µOR over δOP and κOR, respectively, the binding affinities of the described examples to the different human opioid receptors in an in-vitro test system were measured.
After preparation of membranes, radioligand displacement assays were run in 96-well format at a final volume of 200 µL in binding buffer (50 mM Tris-HCI, 1 mM EDTA, 5 mM MgCl2, 100 µg/mL bacitracin, 5 µg/mL soybean trypsin inhibitor, pH 7.4) with the radioligand [^3H]diprenorphine (specific activity = 31 Ci/mmol) at a final concentration of 0.20-0.30 nM. […] Unspecific binding was determined in the presence of 10 µM of the naloxone. […] The resulting competition curves of the receptor binding experiments were analyzed by nonlinear regression. […] Three to seven experiments per compound were performed, with each concentration in triplicate.

Assay [2] has as its target T2, µOR (Homo sapiens, UniProt P35372). The assay is described as above. Set-up: expressed in transfected cells; host or cells: HEK 293T cells, transient transfection, membrane preparation. The protocol: as §1
(§2) For the determination of receptor binding affinity competitive radioligand binding experiments were performed as described in literature (H. Huebner, C. Haubmann, W. Utz, P. Gmeiner, J. Med. Chem., 2000, 43, 756-762). In brief, HEK 293T cells were transiently transfected with the cDNAs coding for the human opioid receptor subtypes µOR, δOR, and kOR, respectively, using a solution of polyethylenimine in PBS (PEI, linear, 25 kDa, Polysciences) as transfection reagent at a 3:1 PEI to cDNA ratio (I. Fish, A. Stoessel, K. Eitel, C. Valant, S. Albold, H. Huebner, D. Moeller, M.J. Clark, R.K. Sunahara, A. Christopoulos, B.K. Shoichet, P. Gmeiner, J. Med. Chem., 2017, 60, 9239-9250). After preparation of membranes, radioligand displacement assays were run in 96-well format at a final volume of 200 µL in binding buffer (50 mM Tris-HCI, 1 mM EDTA, 5 mM MgCl2, 100 µg/mL bacitracin, 5 µg/mL soybean trypsin inhibitor, pH 7.4) with the radioligand [^3H]diprenorphine (specific activity = 31 Ci/mmol) at a final concentration of 0.20-0.30 nM. […] Unspecific binding was determined in the presence of 10 µM of the naloxone. Protein concentrations were determined employing the method of Lowry with bovine serum albumin as standard (O.H. Lowry, N.J. Rosebrough, A.L. Farr, R.J. Randall, J. Biol. Chem., 1951, 193, 265-275). The resulting competition curves of the receptor binding experiments were analyzed by nonlinear regression. The data were initially fit using a sigmoid model to provide IC50 values, which were subsequently transformed to Ki values according to the equation of Cheng and Prusoff (Y.-C. Cheng, W. H. Prusoff, Biochem. Pharmacol., 1973, 22, 3099-3108). Three to seven experiments per compound were performed, with each concentration in triplicate.

The target in assay [3] is T2, µOR. The assay is described as follows: β-arrestin-2 recruitment, enzyme-fragment complementation assay in HEK-293 cells. It is filed as cell-based. On the set-up: expressed in transfected cells; host or cells: HEK-293 cells stably expressing EA-tagged β-arrestin-2, transiently transfected with µOR-PK1. Particulars: for Emax: HEK293, relative to the full effect of reference agonist DAMGO [=100%]; for β-arrestin recruitment EC50: mean of 3-8 tests, 90 min incubation, CBA = could not be analyzed (no dose-response curve). The protocol:
(§3) Functionally selective drugs, which are biased towards Gi protein activation over β-arrestin signaling at the µOR are indicated to show an improved side effect profile. Thus, the characterization of the functional properties of the described examples at the µOR were performed by determination of the ligand stimulated G-protein related signaling and β-arrestin recruitment applying cell based in-vitro test systems. Full and partial agonists as well as antagonists for G protein related signaling were identified.
Measurement of β-arrestin-2 recruitment was done applying an enzyme-fragment complementation assay as described previously (C. Gentzsch, K. Seier, A. Drakopoulos, M.-L. Jobin, Y. Lanoiselee, Z. Koszegi, D. Maurel, R. Sounier, H. Huebner, P. Gmeiner, S. Granier, D. Calebiro, M. Decker. Ang. Chem. Int. Ed. 2020, 59, 2-9. J. Hellmann, M. Drabek, J. Yin, J. Gunera, T. Proell, F. Kraus, C.J. Langmead, H. Huebner, D. Weikert, P. Kolb, D.M. Rosenbaum, P. Gmeiner. PNAS 2020, 117, 18059-18067). In brief, HEK-293 cells stably expressing the enzyme acceptor (EA) tagged β-arrestin-2 fusion protein were transiently co-transfected with the ProLink tagged µOR-PK1 After 24 h cells were transferred into 384-well microplates and cultured for further 24 h. To start arrestin recruitment compounds were added to the cells to get a final concentration in a range of 10 pM to 100 µM. After incubation for 90 min reaction was stopped by addition of detection mix. Chemiluminescence was determined in duplicates (3-8 individual experiments for each compound in comparison to the reference agonist DAMGO). Data analysis was done as described above.
(§4) In the above table, the numbers indicate mean EC50 values in nM and Emax values relative to the full effect of reference agonist DAMGO [=100%], respectively and are derived from 3-9 individual experiments for G-protein signaling and 3-8 tests for arrestin recruitment. ND = not determined.
(Activated receptors often draw arrestin, which recruitment assays turn into a signal.)

Assay [4] concerns the target T3, δOR (Homo sapiens, UniProt P41143).
T3 construct: expressed in transfected cells; host or cells: HEK 293T cells, transient transfection, membrane preparation
The assay is described as follows: competitive radioligand binding with [3H]diprenorphine, membranes of transfected HEK 293T cells. The method, then: as §1, §2

Assay [5] addresses T2, µOR. The assay is described as follows: G-protein mediated signaling, IP1 accumulation assay (HTRF) in HEK-293T cells with hybrid G-protein Gαqi. Format: cell-based. Set-up: expressed in transfected cells; host or cells: HEK-293T cells, transient transfection. Particulars: for Emax: HEK-293T, read-out: G-protein signaling Emax. The protocol:
as §3
The determination of G-protein stimulated µOR activation was measured applying an IP1 accumulation assay as described previously (J. Kruell, S.K. Fehler, L. Hofmann, N. Nebel, S. Maschauer, O. Prante, P. Gmeiner, H. Lanig, H. Huebner, M.R. Heinrich. ChemMedChem 2020, 15, 1175-1186. C. Gentzsch, K. Seier, A. Drakopoulos, M.-L. Jobin, Y. Lanoiselee, Z. Koszegi, D. Maurel, R. Sounier, H. Huebner, P. Gmeiner, S. Granier, D. Calebiro, M. Decker. Ang. Chem. Int. Ed. 2020, 59, 2-9). In brief, HEK-293T cells were grown to confluence of approximately 70% and transiently transfected with the cDNA of the human µOR receptor and the hybrid G-protein Gαqi. After one day cells were seeded into 384-well microplates. For testing cells were incubated with test compounds (final range of concentration from 1 pM up to 10 µM) for 180 min at 37 °C followed by addition of detection reagents. Time resolved fluorescence resonance energy transfer (HTRF) was determined using a microplate reader. Each compound was tested in duplicates in 3-9 individual experiments in comparison to the reference compound DAMGO. The resulting dose response curves were analyzed by nonlinear regression using the algorithms in PRISM 6.0 (GraphPad software, San Diego, CA), fitted with a sigmoid model and normalized to basal activity (0 %) and the maximal effect caused by the reference full agonist DAMGO (100 %).
as §4

[6] abbreviates: radioligand [3H]diprenorphine, number in brackets = number of experiments, read-out: mean Ki value κOR.
Where [7] appears, read: radioligand [3H]diprenorphine, number in brackets = number of experiments, read-out: mean Ki value δOR.

Where two headings read alike, the source gives them in different places.

By Ki is commonly meant a measure of affinity in units of concentration, obtained from inhibition or displacement. A word on the Emax: it is the greatest response seen or fitted, relative to the assay's reference. One may read the EC50 as the concentration needed to bring the measured effect to its halfway point. For the compound `CN(C)[C@H](CNC(=O)/C=C/c1cccc(C(F)(F)F)c1)Cc1ccc(O)cc1` [Example 8, (S,E)-N-(2-(Dimethylamino)-3-(4-hydroxyphenyl)propyl)-3-(3-(trifluoromethyl)phenyl)acrylamide formiate], the Ki was 580 nM in assay [1], 30 nM in assay [2] and 120 nM in assay [4]. In addition, the Emax in assay [3] is less than 5%; in assay [5] it was 100%. Besides, in assay [3], the “β-arrestin recruitment EC50” value was “CBA”. Moreover, in assay [5], the EC50 was 15 nM.

For the compound `CN(C)[C@H](CNC(=O)/C=C/c1cccc2ccccc12)Cc1ccc(C(N)=O)cc1` [Example 18, (S,E)-4-(2-(Dimethylamino)-3-(3-(naphthalen-1-yl)acrylamido)propyl)benzamide formiate], the Ki in assay [1] is 200 nM; in assay [2], 6.2 nM; in assay [4], 130 nM. In addition, the EC50 in assay [3] came to 120 nM; in assay [5], 9.8 nM. Further, the Emax in assay [3] was 4%; in assay [5], 92%.

For `NC(=O)c1ccc(C[C@H](N)CNC(=O)/C=C/c2cccc(C(F)(F)F)c2)cc1` [Example 14, (S,E)-4-(2-Amino-3-(3-(3-(trifluoromethyl)phenyl)acrylamido)propyl)benzamide formiate], the results for the Ki in assay [1], in assay [2] and in assay [4] were 5600 nM, 460 nM and 2900 nM, respectively. In addition, the maximum response (Emax) in assay [3] is less than 5%; in assay [5], 75%. Besides, the “β-arrestin recruitment EC50” value in assay [3] is recorded as “CBA”. Further, the EC50 in assay [5] (mean of 3-9 experiments, 180 min at 37 °C, CBA = could not be analyzed (no dose-response curve), read-out: G-protein signaling EC50) was 2200 nM.

As for `CN(C)[C@H](CNC(=O)/C=C/c1cccc(C(F)(F)F)c1)Cc1ccc(C(N)=O)cc1` [Example 15, (S,E)-4-(2-(Dimethylamino)-3-(3-(3-(trifluoromethyl)phenyl)acrylamido)propyl)benzamide formiate], the values for the Ki in assay [1], in assay [2] and in assay [4] were 450 nM, 6.7 nM and 55 nM, respectively. Moreover, the EC50 stood at 130 nM in assay [3] and 6.3 nM in assay [5]. Besides, the Emax in assay [3] was found to be 5%; in assay [5], 95%.

As to `CN(C)[C@H](CNC(=O)/C=C/c1ccccc1C(F)(F)F)Cc1ccc(O)cc1` [Example 7, (S,E)-N-(2-(Dimethylamino)-3-(4-hydroxyphenyl)propyl)-3-(2-(trifluoromethyl)phenyl)acrylamide], the Ki turned out to be 140 nM in assay [1] (setting [6]), 28 nM in assay [2] and 180 nM in assay [4] (setting [7]). In addition, the Emax in assay [3] was less than 5%; in assay [5], 44%. Besides, the “β-arrestin recruitment EC50” value in assay [3] is listed as “CBA”. In addition, the EC50 in assay [5] was 13 nM.

For `C/C(=C\C(=O)NC[C@H](Cc1ccc(O)cc1)N(C)C)c1ccccc1` [Example 3, (S,E)-N-(2-(Dimethylamino)-3-(4-hydroxyphenyl)propyl)-3-phenylbut-2-enamide], the Ki was 120 nM in assay [1] (setting [6]), 28 nM in assay [2] and 120 nM in assay [4] (setting [7]). Moreover, the Emax in assay [3] was less than 5%; in assay [5], 76%. For the same compound, the “β-arrestin recruitment EC50” value in assay [3] is on record as “CBA”. This compound also yielded an EC50 in assay [5] of 11 nM.

`C/C(=C\c1ccccc1)C(=O)NC[C@H](Cc1ccc(O)cc1)N(C)C` [Example 4, (S,E)-N-(2-(Dimethylamino)-3-(4-hydroxyphenyl)propyl)-2-methyl-3-phenylacrylamide]: the inhibition constant Ki is 110 nM in assay [1] (setting [6]), 46 nM in assay [2] and 49 nM in assay [4]. In addition, the Emax in assay [3] was less than 5%; in assay [5], 62%. Also, the “β-arrestin recruitment EC50” value in assay [3] was “CBA”. The same compound gave a half-maximal effective concentration (EC50) in assay [5] of 17 nM.

On to `CN(C)[C@H](CNC(=O)C=Cc1ccccc1)Cc1ccc(O)cc1` (stereo in doubt) [Example 1, (S)-N-(2-(Dimethylamino)-3-(4-hydroxyphenyl)propyl)cinnamamide], for which the Ki was determined as 120 nM in assay [1] (setting [6]), 13 nM in assay [2] and 25 nM in assay [4]. Also, the Emax in assay [3] is less than 5%; in assay [5], 63%. In addition, the “β-arrestin recruitment EC50” value in assay [3] is on record as “CBA”. Further, the “binding to δOR (in words)” value in assay [4] (statement in text referring to the radioligand binding table) is reported as “high affinity”. In addition, the EC50 in assay [5] was 7 nM.

With `CN(C)[C@H](CNC(=O)/C=C/c1ccc(C(F)(F)F)cc1)Cc1ccc(O)cc1` [Example 9, (S,E)-N-(2-(Dimethylamino)-3-(4-hydroxyphenyl)propyl)-3-(4-(trifluoromethyl)phenyl)acrylamide], the Ki amounted to 2800 nM in assay [1] (setting [6]); 170 nM in assay [2] (radioligand [3H]diprenorphine, number in brackets = number of experiments, read-out: mean Ki value µOR); 1100 nM in assay [4] (setting [7]). For the same compound, the maximal effect (Emax) in assay [3] is less than 5%; in assay [5], 92%. The “β-arrestin recruitment EC50” value in assay [3] was “CBA”. Besides, the EC50 in assay [5] amounted to 67 nM.
